The text below walks through data of patent publication US8829014B2, “Thiazole and thiophene analogues, and their use in treating autoimmune diseases and cancers” (Board of Supervisors of Louisiana State University and …, priority 2006, dated 2014).

Where two headings read alike, the source gives them in different places.

One experiment has as its system carageenan-induced edema. In words: Carrageenan-induced rat paw edema test (anti-inflammatory activity). In kind it is in vivo, Sprague-Dawley rats. Details: % Protection: concentration or dose not given beside the values. To be noted: carrageenan-induced rat paw edema, defined in Example 397; for inhibition in vivo at 50 mg/kg: po, 3 h, read-out: % Protection. Put shortly: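 Edema was raised by sub-plantar injection of 1% carrageenan into the right hind paw, 1 h after dosing 18 h-fasted male/female Sprague-Dawley rats (150-250 g) with 50 mg/kg p.o. in 0.1% CMC. Swelling was measured by displacement 3 h later and expressed as % protection against saline control.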
A general note: The carrageenan paw model is a standard test of acute inflammation.

The test system of a further experiment is NF-κB. In words: NF-κB inhibitor screen: basal NF-κB-dependent luciferase expression in HEK/NF-κB cell line. The class given is cell-based. Particulars: for inhibition at 1 µM / NFkB inhibition @ 1 uM: determined as described in Example 398; for inhibition at 1 µM: read-out: NFkB inhibition @ 1 uM; for inhibition of basal NF-κB-dependent luciferase expression: 3.3 μM (FIG. 12). The source says: Development of NF-κB and AP-1 Screens: Two HEK293 cell lines were purchased from Panomics. One cell line was stably transfected with a plasmid in which luciferase expression is regulated by six copies of the NF-κB transcriptional element (5′-[…]-3′); and the other cell line was stably transfected with a plasmid in which luciferase expression is regulated by three copies of the AP-1 transcriptional element (TGACTAA). To test the biological activity of the promoters, the HEK/NF-κB cell line was stimulated with TNF-α (20 ng/ml) for 24 hours, and the HEK/AP-1 cell line was stimulated with PMA (10 ng/ml) for 24 hours. […] In addition, a pyrimidine carboxyimide that had previously been shown (ref. 58) to be an inhibitor of transcription mediated by NF-κB and AP-1 reduced luciferase activity by approximately 40% in each of the NF-κB and AP-1 cell lines.
The above two assays analyzed the effects of the compounds on post-transcriptional gene regulation, which is known to play a key role in cancer and inflammation. By contrast, the NF-κB assay and the following assay (AP-1) test whether the compounds act at the transcriptional level. Thirty-nine representative compounds were screened in an HEK/NF-κB cell line. HEK cells were stably transfected with a plasmid expressing luciferase under the control of the NF-κB promoter. These transfected cells were plated on a 96-well plate. As above, initial screening was carried out at 1.0 μM by adding compound in DMSO (0.3%) twenty-four hours after plating. Each compound was added to each of triplicate wells. DMSO (0.3%) was added to one set of wells as a control. Luciferase activity was determined using Promega's Brite-Glo kit, and the mean for each sample was normalized to that for DMSO.
The fourteen representative compounds identified in the eIF4E screen as interesting (Numbered 2, 3, 4, 6, 8, 11, 15, 20, 21, 24, 25, 32, 33, and 35) were then tested for luciferase activity in a six-point dose response (10 nM, 33 nM, 100 nM, 330 nM, 1000 nM, and 3300 nM). Screening was carried out as described above by monitoring the effects of the compounds on basal NF-κB-dependent luciferase expression. Each dose was used out in triplicate, and repeated between two and four times. Results were normalized by the average expression level at the lowest concentration level, as described above.

The subject of another experiment is AP-1. In words: AP-1 inhibitor screen: basal AP-1-dependent luciferase expression in HEK/AP-1 cell line. The class given is cell-based. Particulars: for inhibition at 1 µM: AP1; for inhibition at 1 µM / AP-1 inhibition @ 1 uM: determined as described in Example 398. The text has this: Development of NF-κB and AP-1 Screens: Two HEK293 cell lines were purchased from Panomics. One cell line was stably transfected with a plasmid in which luciferase expression is regulated by six copies of the NF-κB transcriptional element (5′-[…]-3′); and the other cell line was stably transfected with a plasmid in which luciferase expression is regulated by three copies of the AP-1 transcriptional element (TGACTAA). To test the biological activity of the promoters, the HEK/NF-κB cell line was stimulated with TNF-α (20 ng/ml) for 24 hours, and the HEK/AP-1 cell line was stimulated with PMA (10 ng/ml) for 24 hours.
HEK cells were stably transfected with a plasmid expressing luciferase under the control of the AP-1 promoter. The transfected cells were plated on a 96-well plate for 24 hr. Then 1.0 μM of each compound in DMSO (0.3%) was added to triplicate wells and incubated for 48 hr. DMSO (0.3%) was added to one set of triplicate wells as a control. Luciferase activity was determined using Promega's Brite-Glo kit, and the mean for each sample was normalized to that for DMSO.
Screening was carried out as described above, monitoring the compounds' effects on basal AP-1-dependent luciferase expression. Each dose-response experiment was carried out in triplicate and repeated between two and four times.

Usually inhibition stands for the change of the read-out against control, counted positive when it falls. With `COC(=O)Nc1nc(-c2ccccc2)c(-c2nc3ccccc3c(=O)n2-c2ccc(Cl)cc2)s1` [Example 250, [5-(4-Oxo-3-(4-Chloro-phenyl)-3,4-dihydro-quinazolin-2-yl)-4-phenyl-thiazol-2-yl]-carbamic acid methyl ester], the inhibition in vivo at 50 mg/kg in the experiment on carageenan-induced edema (Rattus norvegicus) stood at 83%. Moreover, the inhibition at 1 µM is 17% in the experiment on NF-κB and 5% in the experiment on AP-1.
Take `CCOC(=O)Nc1nc(C)c(-c2nc3ccccc3c(=O)n2-c2ccc(Cl)cc2)s1` [Example 242, (4-Methyl-5-(4-oxo-3-(4-chloro-phenyl)-3,4-dihydro-quinazolin-2-yl)-thiazol-2-yl)-carbamic acid ethyl ester]: the inhibition in vivo at 50 mg/kg in the experiment with carageenan-induced edema (Rattus norvegicus) worked out at 65%. Further, the inhibition at 1 µM in the experiment on NF-κB came to 53%; in the experiment on AP-1, 12%. Also, the “inhibition of basal NF-κB-dependent luciferase expression” value in the experiment with NF-κB was “about 50%”.
As for `O=c1c2ccccc2nc(-c2sc(Nc3ccc(Cl)cc3)nc2-c2ccccc2)n1-c1ccccc1` [Example 165, 2-[2-(4-Chloro-phenylamino)-4-phenyl-thiazol-5-yl]-3-phenyl-3H-quinazolin-4-one], the inhibition in vivo at 50 mg/kg with carageenan-induced edema (Rattus norvegicus) came to 87%. Further, the inhibition at 1 µM with NF-κB is -47%; in the experiment with AP-1 it was 27%. The “basal AP-1-dependent luciferase, six-point dose response” value with AP-1 (10 nM-3300 nM (FIG. 14)) is on record as “substantial activity at submicromolar concentrations”.
On to `CCOC(=O)Nc1nc(-c2ccccc2)c(-c2nc3ccccc3c(=O)n2-c2ccc(C)cc2)s1` [Example 193, [5-(4-Oxo-3-p-tolyl-3,4-dihydro-quinazolin-2-yl)-4-phenyl-thiazol-2-yl]-carbamic acid ethyl ester], for which, in the experiment on carageenan-induced edema (Rattus norvegicus), the inhibition in vivo at 50 mg/kg is 31%. The inhibition at 1 µM in the experiment with NF-κB worked out at 2%; in the experiment on AP-1, 11%.
The matching figures for `COc1cccc(-n2c(-c3sc(Nc4ccccc4)nc3-c3ccccc3)nc3ccccc3c2=O)c1` [Example 213, 3-(3-methoxyphenyl)-2-(4-phenyl-2-phenylamino-thiazol-5-yl)-3H-quinazolin-4-one]: 38%, 35% and 33%.
In the case of `Cc1nc(Nc2ccccc2)sc1-c1nc2ccccc2c(=O)n1-c1ccccc1` [Example 157, 2-(4-Methyl-2-phenylamino-thiazol-5-yl)-3-phenyl-3H-quinazolin-4-one], in the experiment on carageenan-induced edema (Rattus norvegicus), the inhibition in vivo at 50 mg/kg turned out to be 12%. For the same molecule, the figures for the inhibition at 1 µM with NF-κB and with AP-1 were 25% and 16%, respectively.
The like results for `CC(=O)c1ccc(-n2c(-c3sc(Nc4ccc(Cl)cc4)nc3C)nc3ccccc3c2=O)cc1` [Example 263, 2-[2-(4-Chlorophenylamino)-4-methyl-thiazol-5-yl]-3-(4-acetyl-phenyl)-3H-quinazolin-4-one] were, in that order, 13%, 0% and 2%.
The matching figures for `O=c1c2ccccc2nc(-c2sc(Nc3ccc(Cl)cc3)nc2-c2ccccc2)n1-c1ccc(Cl)cc1` [Example 256, 2-[2-(4-Chloro-phenylamino)-4-phenyl-thiazol-5-yl]-3-(4-Chloro-phenyl)-3H-quinazolin-4-one]: 84%, 99% and 61%.
For `Cc1ccccc1-n1c(-c2sc(Nc3ccccc3)nc2C)nc2ccccc2c1=O` [Example 169, 2-(4-Methyl-2-phenylamino-thiazol-5-yl)-3-o-tolyl-3H-quinazolin-4-one], the inhibition in vivo at 50 mg/kg in the experiment on carageenan-induced edema (Rattus norvegicus) is 42%. The results for the inhibition at 1 µM in the experiment with NF-κB and with AP-1 were 21% and 60%, respectively.
With `CNc1nc(C)c(-c2nc3ccccc3c(=O)n2-c2ccccc2C)s1` [Example 168], the “% Protection” value in the experiment with carageenan-induced edema was 35%. Moreover, the “NFkB inhibition @ 1 uM” value in the experiment on NF-κB worked out at 16. The “AP-1 inhibition @ 1 uM” value in the experiment with AP-1 amounted to 67.
The like results for “2-[2-(1-Furan-2-yl-vinylamino)-4-phenyl-thiazol-5-yl]-3-(4-methoxyphenyl)-3H-quinazolin-4-one [Example 224]” were, in that order, 79%, −24 and 2.
Regarding `COc1ccc(-n2c(-c3sc(Nc4ccc(Cl)cc4)nc3C)nc3ccccc3c2=O)cc1` [Example 217, 2-[2-(4-Chlorophenylamino)-4-methyl-thiazol-5-yl]-3-(4-methoxyphenyl)-3H-quinazolin-4-one], the inhibition in vivo at 50 mg/kg in the experiment on carageenan-induced edema (Rattus norvegicus) worked out at 50%. For the same molecule, the values for the inhibition at 1 µM with NF-κB and in the experiment on AP-1 were -38% and -43%, respectively.
Take `Cc1nc(Nc2ccc(Cl)cc2)sc1-c1nc2ccccc2c(=O)n1-c1ccc(Cl)cc1` [Example 246, 2-[2-(4-Chlorophenylamino)-4-methyl-thiazol-5-yl]-3-(4-chloro-phenyl)-3H-quinazolin-4-one]: in the experiment with carageenan-induced edema, the inhibition in vivo at 50 mg/kg was determined as 38%. In addition, the inhibition at 1 µM in the experiment with NF-κB amounted to 96%; in the experiment on AP-1, 74%. The “inhibition of basal NF-κB-dependent luciferase expression” value with NF-κB is listed as “about 50%”.
`CNc1nc(-c2ccccc2)c(-c2nc3ccccc3c(=O)n2-c2ccccc2OC)s1` [Example 205, 2-(2-Methylamino-4-phenyl-thiazol-5-yl)-3-(2-methoxyphenyl)-3H-quinazolin-4-one]: the inhibition in vivo at 50 mg/kg in the experiment with carageenan-induced edema (Rattus norvegicus) turned out to be 56%. The inhibition at 1 µM worked out at 61% with NF-κB and 90% in the experiment with AP-1.
For `CCOC(=O)Nc1nc(-c2ccccc2)c(-c2nc3ccccc3c(=O)n2-c2ccccc2C)s1` [Example 171, [5-(4-Oxo-3-o-tolyl-3,4-dihydro-quinazolin-2-yl)-4-phenyl-thiazol-2-yl]-carbamic acid ethyl ester], the inhibition in vivo at 50 mg/kg with carageenan-induced edema (Rattus norvegicus) was found to be 52%. The values for the inhibition at 1 µM in the experiment on NF-κB and in the experiment on AP-1 were 23% and 52%, respectively.
For the molecule `Cc1ccc(Nc2nc(-c3ccccc3)c(-c3nc4ccccc4c(=O)n3-c3ccc(Cl)cc3)s2)cc1` [Example 257, 2-[2-(4-Methyl-phenylamino)-4-phenyl-thiazol-5-yl]-3-(4-Chloro-phenyl)-3H-quinazolin-4-one], the inhibition at 1 µM in the experiment with NF-κB was -10%; in the experiment on AP-1, -51%.
In the case of “2-[2-(1-Furan-2-yl-vinylamino)-4-phenyl-thiazol-5-yl]-3-(4-Chloro-phenyl)-3H-quinazolin-4-one [Example 255]”, the “NFkB inhibition @ 1 uM” value in the experiment with NF-κB worked out at 0. Further, in the experiment on AP-1, the “AP-1 inhibition @ 1 uM” value turned out to be 7.
The matching figures for “{5-[3-(3-Methoxy-phenyl)-4-oxo-3,4-dihydro-quinazolin-yl]-thiazol-2-yl}-carbamic acid ethyl ester [Example 209]”: 29 and 5.
`CCOC(=O)Nc1nc(C)c(-c2nc3ccccc3c(=O)n2-c2ccccc2C)s1` [Example 166, [4-Methyl-5-(4-oxo-3-o-tolyl-3,4-dihidro-quinazolin-2-yl)-thiazol-2-yl]-carbamic acid ethyl ester]: the “NFkB inhibition @ 1 uM” value with NF-κB is recorded as 21. For the same molecule, the “AP-1 inhibition @ 1 uM” value with AP-1 is on record as 14.
The like results for `COC(=O)Nc1nc(-c2ccccc2)c(-c2nc3ccccc3c(=O)n2-c2ccc(C(C)=O)cc2)s1` [Example 265, [5-(4-Oxo-3-(4-acetyl-phenyl)-3,4-dihidro-quinazolin-2-yl)-4-phenyl-thiazol-2-yl]-carbamic acid methyl ester] were, in that order, 0 and 16.
